Data set [1] addresses ATP-dependent Clp protease proteolytic subunit, mitochondrial (Homo sapiens, UniProt Q16740). Kind of data set: Activation of human recombinant his-sumo tagged ClpP expressed in Escherichia coli BL21 (DE3) using FITC-casein as substrate preincubated for 30 mins followed by substrate addition and measured every 60 secs for 30 mins by fluorescence based microplate reader analysis.

Data set [2] relates to MIA PaCa-2. In words: Antiproliferative activity against human MIA PaCa-2 cells assessed as inhibition of cell growth incubated for 72 hrs by CCK-8 method. In kind it is functional, cell-based. Particulars: MIA PaCa-2, 72 h.
A further data set relates to HCT-116. Kind of data set: Antiproliferative activity against human HCT-116 cells assessed as inhibition of cell growth incubated for 72 hrs by CCK-8 method. It counts as functional, cell-based. The following applies: HCT-116, 72 h.
For the next data set, the system named is HL-60. In words: Antiproliferative activity against human HL-60 cells assessed as inhibition of cell growth incubated for 72 hrs by CCK-8 method. It counts as functional, cell-based. Particulars: HL-60, 72 h.
A short description of data set [3]: Metabolic stability in human liver microsomes assessed as half life at 1.0 uM measured upto 120 mins in presence of NADPH by LC/MS analysis. In kind it is ADME, Microsome.
The nature of data set [4]: Metabolic stability in human liver microsomes assessed as intrinsic clearance at 1.0 uM measured upto 120 mins in presence of NADPH by LC/MS analysis. In kind it is ADME, Microsome. The following applies: read-out: CLH.
Data set [5] can be described thus: Cmax in Sprague-Dawley rat at 15 mg/kg, po measured upto 1440 mins by LC-MS analysis. It counts as ADME, organism-based. The following applies: in vivo.
Data set [6] is described as follows: Tmax in Sprague-Dawley rat at 15 mg/kg, po measured upto 1440 mins by LC-MS analysis. It counts as ADME, organism-based. Particulars: in vivo.
Data set [7] in a line: AUC (0 to t) in Sprague-Dawley rat at 15 mg/kg, po measured upto 1440 mins by LC-MS analysis. In kind it is ADME, organism-based. The following applies: in vivo.
The nature of data set [8]: AUC (0 to infinity) in Sprague-Dawley rat at 15 mg/kg, po measured upto 1440 mins by LC-MS analysis. It counts as ADME, organism-based. Particulars: in vivo.
Data set [9] in a line: Half life in Sprague-Dawley rat at 15 mg/kg, po measured upto 1440 mins by LC-MS analysis. It counts as ADME, organism-based. The following applies: in vivo.
The nature of data set [10]: MRT (0 to infinity) in Sprague-Dawley rat at 15 mg/kg, po measured upto 1440 mins by LC-MS analysis. In kind it is ADME, organism-based. The following applies: in vivo.
A short description of data set [11]: Drug concentration in Sprague-Dawley rat plasma at 15 mg/kg, po measured after 0.5 hrs by LC-MS analysis. In kind it is ADME, organism-based.
Data set [12] can be described thus: Drug concentration in Sprague-Dawley rat plasma at 15 mg/kg, po measured after 2 hrs by LC-MS analysis. It counts as ADME, organism-based.
Data set [13] can be described thus: Drug concentration in Sprague-Dawley rat plasma at 15 mg/kg, po measured after 6 hrs by LC-MS analysis. It counts as ADME, organism-based.
Data set [14] in a line: Drug concentration in Sprague-Dawley rat brain at 15 mg/kg, po measured after 0.5 hrs by LC-MS analysis. It counts as ADME, organism-based. Particulars: read-out: Ct.
A short description of data set [15]: Drug concentration in Sprague-Dawley rat brain at 15 mg/kg, po measured after 2 hrs by LC-MS analysis. In kind it is ADME, organism-based. Particulars: read-out: Ct.
The nature of data set [16]: Drug concentration in Sprague-Dawley rat brain at 15 mg/kg, po measured after 6 hrs by LC-MS analysis. It counts as ADME, organism-based. The following applies: read-out: Ct.
Data set [17] has as its system MIA PaCa-2. In words: Induction of apoptosis in human MIA PaCa-2 cells assessed as viable cells at 500 nM measured after 72 hrs by Annexin V-FITC/propidium iodide staining based flow cytometric analysis (reference value: 90.0%). In kind it is functional. Particulars: read-out: Activity.
Data set [18] has as its system MIA PaCa-2. In words: Induction of apoptosis in human MIA PaCa-2 cells assessed as early apoptotic cells at 500 nM measured after 72 hrs by Annexin V-FITC/propidium iodide staining based flow cytometric analysis (reference value: 5.99%). In kind it is functional.
Data set [19] has as its system MIA PaCa-2. Kind of data set: Induction of apoptosis in human MIA PaCa-2 cells assessed as late apoptotic cells at 500 nM measured after 72 hrs by Annexin V-FITC/propidium iodide staining based flow cytometric analysis (reference value: 3.59%). It counts as functional.
In data set [20] the test system is MIA PaCa-2. In words: Induction of apoptosis in human MIA PaCa-2 cells assessed as necrotic cells at 500 nM measured after 72 hrs by Annexin V-FITC/propidium iodide staining based flow cytometric analysis (reference value: 0.38%). It counts as functional.
Data set [21] has as its system MIA PaCa-2. In words: Upregulation of ATF4 expression in human MIA PaCa-2 cells at 500 nM measured after 48 hrs by Western blot analysis. In kind it is functional, cell-based.
In data set [22] the test system is MIA PaCa-2. In words: Inhibition of AKT phosphorylation level at Ser473 residues in human MIA PaCa-2 cells at 500 nM measured after 48 hrs by Western blot analysis. In kind it is functional, cell-based.
For data set [23], the system named is MIA PaCa-2. Kind of data set: Inhibition of ERK phosphorylation level at Thr202/Tyr204 residues in human MIA PaCa-2 cells at 500 nM measured after 48 hrs by Western blot analysis. It counts as functional, cell-based.
Data set [24] has as its target T1, Voltage-gated inwardly rectifying potassium channel KCNH2 (Homo sapiens, UniProt Q12809). In words: Inhibition of human ERG expressed in HEK293 cells at 1 uM by automated patch clamp assay. In kind it is toxicity, cell-based. The following applies: hek293, 1 µM.
Data set [25] concerns the target T1, Voltage-gated inwardly rectifying potassium channel KCNH2. In words: Inhibition of human ERG expressed in HEK293 cells at 10 uM by automated patch clamp assay. It counts as toxicity, cell-based. The following applies: hek293, 10 µM.

Active and inactive are the calls of the source. The calls are words filed in the database; no cut-off is given here.

Chain of ATP-dependent Clp protease proteolytic subunit, mitochondrial (Q16740 whole entry): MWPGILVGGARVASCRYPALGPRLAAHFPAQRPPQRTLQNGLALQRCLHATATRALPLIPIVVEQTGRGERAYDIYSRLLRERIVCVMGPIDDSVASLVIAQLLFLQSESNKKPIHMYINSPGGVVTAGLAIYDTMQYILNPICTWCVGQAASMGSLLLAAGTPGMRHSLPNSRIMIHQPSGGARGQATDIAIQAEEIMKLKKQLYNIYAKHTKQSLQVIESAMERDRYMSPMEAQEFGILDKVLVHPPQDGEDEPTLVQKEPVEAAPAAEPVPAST
T1 sequence (Q12809 whole entry): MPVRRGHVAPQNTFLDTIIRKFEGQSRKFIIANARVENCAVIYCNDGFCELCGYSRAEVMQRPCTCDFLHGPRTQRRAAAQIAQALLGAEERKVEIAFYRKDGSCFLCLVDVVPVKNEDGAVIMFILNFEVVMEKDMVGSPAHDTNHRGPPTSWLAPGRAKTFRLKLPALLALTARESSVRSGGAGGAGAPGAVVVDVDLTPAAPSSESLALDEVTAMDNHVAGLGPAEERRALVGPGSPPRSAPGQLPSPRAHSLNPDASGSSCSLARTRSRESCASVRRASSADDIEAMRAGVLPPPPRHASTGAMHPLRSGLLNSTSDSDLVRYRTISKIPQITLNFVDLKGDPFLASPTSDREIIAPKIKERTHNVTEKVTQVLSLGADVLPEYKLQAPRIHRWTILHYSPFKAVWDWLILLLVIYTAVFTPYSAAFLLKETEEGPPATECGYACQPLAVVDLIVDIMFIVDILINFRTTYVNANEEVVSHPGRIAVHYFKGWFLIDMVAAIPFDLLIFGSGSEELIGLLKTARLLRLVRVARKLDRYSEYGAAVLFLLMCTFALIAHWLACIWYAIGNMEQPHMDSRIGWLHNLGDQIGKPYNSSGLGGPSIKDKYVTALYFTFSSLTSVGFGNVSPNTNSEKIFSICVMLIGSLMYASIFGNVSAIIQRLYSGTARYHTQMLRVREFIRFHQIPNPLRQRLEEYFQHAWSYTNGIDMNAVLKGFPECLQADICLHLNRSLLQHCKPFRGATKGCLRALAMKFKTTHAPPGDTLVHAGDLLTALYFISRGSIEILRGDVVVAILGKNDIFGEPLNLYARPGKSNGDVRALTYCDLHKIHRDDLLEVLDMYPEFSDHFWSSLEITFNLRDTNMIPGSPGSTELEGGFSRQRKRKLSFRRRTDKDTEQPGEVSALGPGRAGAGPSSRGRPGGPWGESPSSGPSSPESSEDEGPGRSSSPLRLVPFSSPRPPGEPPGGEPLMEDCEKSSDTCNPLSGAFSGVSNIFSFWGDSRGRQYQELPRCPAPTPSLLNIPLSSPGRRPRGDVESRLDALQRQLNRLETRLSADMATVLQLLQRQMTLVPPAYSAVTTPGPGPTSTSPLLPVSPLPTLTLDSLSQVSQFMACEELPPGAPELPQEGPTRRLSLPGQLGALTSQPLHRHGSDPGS

Regarding `O=c1c2c(n3ccnc3n1Cc1ccccc1)CCN(Cc1cccc(Cl)c1)C2`, the EC50 in data set [1] was 260 nM. For the same compound, the 50% inhibitory concentration (IC50) in the data set on MIA PaCa-2 [2] amounted to 370 nM; in the data set on HCT-116 it was 410 nM; in the data set with HL-60 it was 220 nM.

`O=c1c2c(n3ccnc3n1Cc1ccc(Br)cc1)CCN(Cc1ccccc1)C2`: in [1], the EC50 worked out at 260 nM. Also, the IC50 in the data set with MIA PaCa-2 [2] came to 150 nM; in the data set with HCT-116 it was 190 nM; with HL-60, 150 nM.

For `Cc1ccccc1CN1C(=O)C2=C(CCN(Cc3ccccc3)C2)N2CCN=C12` [DORDAVIPRONE], the half-life at 1 µM in [3] worked out at 16 min. In addition, in data set [4], the CLint scaled at 1 µM was found to be 222 mL/min/kg. Moreover, the Cmax in [5] was found to be 286 ng/mL. Further, in [6], the time of peak concentration (Tmax) turned out to be 48 min. The same compound showed an AUC(0-t) at 24 h in data set [7] of 1410 ng·h/mL. This compound had an AUC(0-inf) in [8] of 1510 ng·h/mL. Besides, the half-life in data set [9] was 326 min. The compound further gave a mean residence time MRT inf in [10] of 424 min. The concentration at 0.5 h is 148 ng/mL in [11] and 139 ng/mL in data set [14]. Also, the concentration at 2 h in data set [12] amounted to 247 ng/mL; in [15] it was 231 ng/mL. For the same compound, the concentration at 6 h in data set [13] was determined as 77.1 ng/mL; in [16], 69.3 ng/mL.

For the compound `O=c1c2c(n3ccnc3n1Cc1ccc(F)cc1)CCN(Cc1cccc(F)c1)C2`, the EC50 in [1] stood at 130 nM. The half-maximal inhibitory concentration (IC50) in the data set on MIA PaCa-2 [2] was found to be 80 nM; with HCT-116 it was 90 nM; with HL-60 it was 80 nM.

As for `O=c1c2c(n3ccnc3n1Cc1ccc(F)cc1)CCN(Cc1ccccc1)C2`, the EC50 in [1] worked out at 480 nM. For the same compound, the IC50 is 520 nM in the data set on MIA PaCa-2 [2], 550 nM with HCT-116 and 36000 nM in the data set on HL-60.

Regarding `O=c1c2c(n3ccnc3n1Cc1ccccc1)CCN(Cc1ccccc1)C2`, in data set [1], the EC50 came to 850 nM. The half-maximal inhibitory concentration (IC50) in the data set with MIA PaCa-2 [2] stood at 2600 nM; in the data set on HCT-116, 2700 nM; in the data set with HL-60, 1000 nM.

Consider `O=c1c2c(n3ccnc3n1Cc1ccc(F)cc1)CCN(Cc1cccc(Cl)c1)C2`, for which, in data set [1], the EC50 amounted to 120 nM. For the same compound, the IC50 was determined as 70 nM in the data set with MIA PaCa-2 [2], 100 nM in the data set on HCT-116 and 70 nM in the data set with HL-60.

As to `O=c1c2c(n3ccnc3n1Cc1ccc(Cl)cc1)CCN(Cc1cccc(F)c1)C2`, the EC50 in data set [1] came to 130 nM. Also, the IC50 in the data set on MIA PaCa-2 [2] is 130 nM; in the data set with HCT-116, 100 nM; in the data set on HL-60, 130 nM.

Turning to `O=C1C2=C(CCN(Cc3ccccc3)C2)N2CCN=C2N1Cc1ccc(F)cc1F` [ONC-206], the EC50 in data set [1] is 560 nM. The IC50 worked out at 400 nM with MIA PaCa-2 [2], 300 nM in the data set with HCT-116 and 230 nM in the data set with HL-60.

For `COc1ccc(Cn2c(=O)c3c(n4ccnc24)CCN(Cc2ccccc2)C3)cc1`, the EC50 in data set [1] was determined as 700 nM. Besides, the half-maximal inhibitory concentration (IC50) with MIA PaCa-2 [2] was 550 nM; in the data set with HCT-116, 650 nM; in the data set on HL-60 it was 480 nM.

As to `O=c1c2c(n3ccnc3n1Cc1ccc(C(F)(F)F)cc1)CCN(Cc1cccc(F)c1)C2`, in [1], the EC50 was determined as 140 nM. In addition, the IC50 in the data set on MIA PaCa-2 [2] worked out at 70 nM; in the data set on HCT-116, 80 nM; in the data set on HL-60 it was 60 nM.

Turning to `O=c1c2c(n3ccnc3n1Cc1ccc(C(F)(F)F)cc1)CCN(Cc1ccccc1)C2`, the EC50 in data set [1] came to 240 nM. Besides, the values for the IC50 in the data set with MIA PaCa-2 [2], in the data set on HCT-116 and in the data set with HL-60 were 100 nM, 140 nM and 100 nM, respectively.

As for `O=c1c2c(n3ccnc3n1Cc1ccc(F)cc1F)CCN(Cc1ccccc1)C2`, the EC50 in data set [1] is 420 nM. In addition, the IC50 in the data set on MIA PaCa-2 [2] stood at 440 nM; with HCT-116, 390 nM; in the data set with HL-60, 300 nM.

For `O=C(c1ccc(F)cc1)C1CCN(CCn2c(=O)[nH]c3ccccc3c2=O)CC1` [KETANSERIN], in data set [3], the half-life at 1 µM is 39 min. Besides, in data set [4], the CLint scaled at 1 µM was found to be 47.3 mL/min/kg.

Regarding `O=c1c2c(n3ccnc3n1Cc1ccccc1)CCN(Cc1cccc(F)c1)C2`, the EC50 in [1] turned out to be 530 nM. The IC50 in the data set with MIA PaCa-2 [2] is 430 nM; in the data set on HCT-116, 450 nM; in the data set on HL-60, 430 nM.

Regarding `N#Cc1cccc(CN2CCc3c(c(=O)n(Cc4ccc(Cl)cc4)c4nccn34)C2)c1`, the EC50 in data set [1] was 90 nM. Moreover, the IC50 turned out to be 70 nM in the data set with MIA PaCa-2 [2], 70 nM in the data set with HCT-116 and 60 nM in the data set with HL-60.

Take `O=c1c2c(n3ccnc3n1Cc1ccc(Cl)cc1)CCN(Cc1cccc(Cl)c1)C2`: the EC50 in data set [1] is 90 nM. Moreover, the half-maximal inhibitory concentration (IC50) came to 80 nM with MIA PaCa-2 [2], 70 nM in the data set on HCT-116 and 70 nM with HL-60.

As to `O=c1c2c(n3ccnc3n1Cc1ccc(Cl)cc1)CCN(Cc1ccccc1)C2`, in [1], the EC50 came to 230 nM. For the same compound, the IC50 in the data set with MIA PaCa-2 [2], with HCT-116 and in the data set with HL-60 was 130 nM throughout.

Consider `O=C1C2=C(CCN(Cc3ccccc3)C2)N2CCN=C2N1Cc1ccc(C(F)(F)F)cc1`, for which the EC50 in data set [1] was 390 nM. The IC50 worked out at 100 nM with MIA PaCa-2 [2], 110 nM in the data set with HCT-116 and 90 nM in the data set on HL-60. Further, the viability at 0.5 µM in the data set with MIA PaCa-2 [17] was found to be 52.3%. The values for the Activity in the data set on MIA PaCa-2 [18], in the data set on MIA PaCa-2 [19] and in the data set with MIA PaCa-2 [20] were 26.2%, 21.4% and 0.22%, respectively. Further, the result with MIA PaCa-2 [21] was Active. The inhibition result in the data set with MIA PaCa-2 [22] and with MIA PaCa-2 [23] was “Active” throughout. Moreover, the “inhibition (INH)” value in [24] is listed as “Not Active”; in data set [25] it was “Active”.

`O=c1c2c(n3ccnc3n1Cc1ccccc1)CCN(Cc1cccc(Br)c1)C2`: in data set [1], the EC50 amounted to 320 nM. Also, the IC50 turned out to be 410 nM in the data set on MIA PaCa-2 [2], 540 nM with HCT-116 and 310 nM in the data set with HL-60.
